{
  "source": "paper PMC10020421",
  "about": "(Pharmacology, biochemistry, and behavior, 2023)",
  "key": {"[1]": {"system": "C57BL/6 mice", "assay": "THC drug discrimination in mice", "type": "in vivo, mouse", "conditions": "for Effect on response rates compared to vehicle: alone or in combination with 3 mg/kg pFPP, either sex; for AMB-FUBINACA ED50 (95% confidence limits), + Saline: with saline"}, "[2]": {"system": "myc-h5HT1a and 3HA-hCB1", "type": "cell-based, human", "conditions": "5HT1a/CB1 cell line"}, "[3]": {"target": "3HA-hCB1 (Homo sapiens, UniProt P21554)", "sequence (P21554 whole entry)": "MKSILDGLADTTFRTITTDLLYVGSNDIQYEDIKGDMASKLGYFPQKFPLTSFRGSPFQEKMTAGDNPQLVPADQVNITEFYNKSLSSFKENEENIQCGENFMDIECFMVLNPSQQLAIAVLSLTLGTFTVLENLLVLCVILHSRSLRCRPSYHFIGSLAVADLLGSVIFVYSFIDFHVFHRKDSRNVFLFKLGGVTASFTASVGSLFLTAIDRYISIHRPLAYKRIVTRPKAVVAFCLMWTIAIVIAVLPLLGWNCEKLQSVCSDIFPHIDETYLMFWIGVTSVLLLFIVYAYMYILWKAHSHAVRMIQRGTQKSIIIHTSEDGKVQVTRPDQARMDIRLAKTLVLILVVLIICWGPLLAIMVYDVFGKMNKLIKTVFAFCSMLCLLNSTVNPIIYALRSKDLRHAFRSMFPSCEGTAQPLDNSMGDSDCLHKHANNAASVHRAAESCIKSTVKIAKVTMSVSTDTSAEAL", "assay": "CAMYEL BRET cAMP signalling assay, HEK cells expressing CB1 alone", "type": "cell-based", "conditions": "for cAMP response in the cell line expressing only CB1: CB1-alone HEK line, 5 μM forskolin; for Emax (% inhib of Fsk), ± SEM / pEC50 ± SEM: CB1 cell line"}, "[4]": {"target": "T1, myc-h5HT1a and 3HA-hCB1 (Homo sapiens, UniProt P08908)", "T1 sequence (P08908 1-422)": "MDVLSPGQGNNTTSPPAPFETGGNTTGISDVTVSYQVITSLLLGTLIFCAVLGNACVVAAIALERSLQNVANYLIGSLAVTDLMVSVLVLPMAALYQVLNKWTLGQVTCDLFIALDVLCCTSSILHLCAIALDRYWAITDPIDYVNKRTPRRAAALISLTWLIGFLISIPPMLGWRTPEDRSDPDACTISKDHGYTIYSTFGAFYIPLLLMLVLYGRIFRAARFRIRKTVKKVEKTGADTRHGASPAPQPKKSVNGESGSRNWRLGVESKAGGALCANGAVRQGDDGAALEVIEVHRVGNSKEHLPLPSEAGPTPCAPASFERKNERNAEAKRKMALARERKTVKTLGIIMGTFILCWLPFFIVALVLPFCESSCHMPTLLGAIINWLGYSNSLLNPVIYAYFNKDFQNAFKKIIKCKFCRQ", "type": "cell-based", "conditions": "5HT1a/CB1 cell line, in the presence of 31.6 nM 8OH-DPAT"}, "[5]": {"target": "T2, myc-h5HT1a (Homo sapiens, UniProt P08908)", "T2 sequence (P08908 1-422)": "T1 sequence (P08908 1-422)", "assay": "CAMYEL BRET cAMP signalling assay, HEK cells expressing 5HT1a alone", "type": "cell-based", "conditions": "5HT1a-alone cell line, in the presence of 31.6 nM 8OH-DPAT"}, "[6]": {"assay": "AMB-FUBINACA metabolism in rat liver microsomes", "type": "in vitro ADME", "conditions": "pFPP 0.59, 1.18, 2.36 μg/ml"}, "[7]": {"assay": "AMB-FUBINACA metabolism in human liver microsomes", "type": "in vitro ADME", "conditions": "pFPP 0.59, 1.18, 2.36 μg/ml"}, "[8]": {"target": "5HT1a", "conditions": "ref Scherman et al., 1988; cited from earlier work"}, "[9]": {"system": "Long Evans rats", "assay": "Plethysmography and telemetry in rats"}, "[10]": {"conditions": "inhibition of 5 μM forskolin-induced cAMP, drug alone"}},
  "note": "Like-named read-outs stand apart in the source and are kept apart here.",
  "data": [
    {"compound": "CCCCCc1cc(O)c2c(c1)OC(C)(C)[C@@H]1CCC(C)=C[C@@H]21", "note": "[THC, Δ^9-tetrahydrocannabinol]", "values": [
      {"measurement": "Effect on response rates compared to vehicle", "setting": "[1]", "result": "neither cannabinoid (alone or in combination with pFPP) significantly affected response rates"},
      {"measurement": "THC ED50 (95% confidence limits), Alone", "setting": "[1]; female mice, i.p., trained to discriminate 5.6 mg/kg THC from vehicle", "result": "1.46 mg/kg (0.62-3.40)"}
    ]},
    {"compound": "CCCN(CCC)C1CCc2cccc(O)c2C1", "note": "(centres unmarked) [8OH-DPAT, 8-hydroxy DPAT]", "values": [
      {"measurement": "Emax (% inhib of Fsk), ± SEM", "setting": "[2]; drug alone", "result": "66.6 ± 1.3 % inhib of Fsk"},
      {"measurement": "pEC50 ± SEM", "setting": "[2]; [10]", "result": "8.39 ± 0.21"},
      {"measurement": "cAMP response in the cell line expressing only CB1", "setting": "[3]", "result": "without showing activity"}
    ]},
    {"compound": "Fc1ccc(N2CCNCC2)cc1", "note": "[pFPP, para-fluorophenylpiperazine]", "values": [
      {"measurement": "Cannabimimetic (THC-like discriminative stimulus) effects", "setting": "[1]; 3 mg/kg pFPP by itself", "result": "did not produce cannabimimetic effects by itself"},
      {"measurement": "Effect on potency of THC-like discriminative stimulus effects of THC or AMB-FUBINACA", "setting": "[1]; 3 mg/kg pFPP co-administered", "result": "nor did it alter the potency"},
      {"measurement": "Effect on response rates", "setting": "[1]; 10 mg/kg pFPP alone, probe tests, data not shown", "result": "substantial decreases in response rates"},
      {"measurement": "Antagonism of cAMP inhibition by 8OH-DPAT", "setting": "[4]", "result": "not observed to have any antagonist effect"},
      {"measurement": "pEC50 ± SEM", "setting": "[2]; [10]", "result": "~5.20 ± 0.18^$"},
      {"measurement": "Antagonism of cAMP inhibition by 8OH-DPAT", "setting": "[5]", "result": "not observed to have any antagonist effect"},
      {"measurement": "cAMP response in the cell line expressing only CB1", "setting": "[3]", "result": "no pFPP response was observed"},
      {"measurement": "Effect on AMB-FUBINACA metabolism", "setting": "[6]", "result": "not altered by any concentration of pFPP"},
      {"measurement": "Effect on AMB-FUBINACA metabolism", "setting": "[7]", "result": "not altered by any concentration of pFPP"},
      {"measurement": "previously reported affinity (pKi)", "setting": "[8]", "result": 6.52},
      {"measurement": "Effect on heart rate in comparison to vehicle", "setting": "[9]; 10 mg/kg pFPP alone, i.p.", "result": "only early and transient decreases"},
      {"measurement": "Effect on respiratory minute volume across the post-injection session", "setting": "[9]; 10 mg/kg pFPP alone, i.p.", "result": "significant decrease"},
      {"measurement": "Effect on temperature in comparison to vehicle", "setting": "[9]; 10 mg/kg pFPP alone, i.p.", "result": "only early and transient decreases"},
      {"measurement": "Effect of co-administration on duration of AMB-FUBINACA heart rate decreases", "setting": "[9]; 10 mg/kg pFPP with 0.3 or 1 mg/kg AMB-FUBINACA", "result": "shortened the duration"}
    ]},
    {"compound": "COC(=O)[C@@H](NC(=O)c1nn(Cc2ccc(F)cc2)c2ccccc12)C(C)C", "note": "[AMB-FUBINACA]", "values": [
      {"measurement": "Effect on response rates compared to vehicle", "setting": "[1]", "result": "neither cannabinoid (alone or in combination with pFPP) significantly affected response rates"},
      {"measurement": "Potency relative to THC in drug discrimination", "setting": "[1]; both sexes, more potent than THC", "result": "49-70 fold"},
      {"measurement": "AMB-FUBINACA ED50 (95% confidence limits), + Saline", "setting": "[1]; female mice, i.p.", "result": "0.03 mg/kg (0.006-0.14)"},
      {"measurement": "AMB-FUBINACA ED50 (95% confidence limits), + Saline", "setting": "[1]; male mice, i.p.", "result": "0.03 mg/kg (0.007-0.14)"},
      {"measurement": "Emax (% inhib of Fsk), ± SEM", "setting": "[2]; + WAY100635 (1 μM)", "result": "59.4 ± 9.17 % inhib of Fsk"},
      {"measurement": "pEC50 ± SEM", "setting": "[2]; + WAY100635 (1 μM)", "result": "9.11 ± 0.16"},
      {"measurement": "Emax (% inhib of Fsk), ± SEM", "setting": "[2]; + pFPP (31.6 μM)", "result": "64.9 ± 3.5 % inhib of Fsk"},
      {"measurement": "pEC50 ± SEM", "setting": "[2]; + pFPP (31.6 μM)", "result": "9.39 ± 0.11"},
      {"measurement": "Emax (% inhib of Fsk), ± SEM", "setting": "[2]; drug alone", "result": "61.0 ± 1.7 % inhib of Fsk"},
      {"measurement": "pEC50 ± SEM", "setting": "[2]; [10]", "result": "9.21 ± 0.14"},
      {"measurement": "Emax (% inhib of Fsk), ± SEM", "setting": "[3]; + WAY100635 (1 μM)", "result": "55.7 ± 5.78 % inhib of Fsk"},
      {"measurement": "pEC50 ± SEM", "setting": "[3]; + WAY100635 (1 μM)", "result": "9.65 ± 0.14"},
      {"measurement": "Emax (% inhib of Fsk), ± SEM", "setting": "[3]; + pFPP (31.6 μM)", "result": "57.9 ± 2.33 % inhib of Fsk"},
      {"measurement": "pEC50 ± SEM", "setting": "[3]; + pFPP (31.6 μM)", "result": "9.70 ± 0.16"},
      {"measurement": "Emax (% inhib of Fsk), ± SEM", "setting": "[3]; drug alone", "result": "60.8 ± 1.7 % inhib of Fsk"},
      {"measurement": "pEC50 ± SEM", "setting": "[3]; [10]", "result": "9.56 ± 0.09"},
      {"measurement": "Duration of decreases in heart rate", "setting": "[9]; 0.3 mg/kg AMB-FUBINACA alone", "result": "approximately half of the post-injection session"},
      {"measurement": "Effect on respiratory minute volume", "setting": "[9]; 0.3 mg/kg AMB-FUBINACA alone, early in the session", "result": "transient decrease"},
      {"measurement": "Time until which significant hypothermia continued", "setting": "[9]; 0.3 mg/kg AMB-FUBINACA combined with 10 mg/kg pFPP", "result": 165, "unit": "min"},
      {"measurement": "Time after injection by which hypothermic effect dissipated", "setting": "[9]; 0.3 mg/kg AMB-FUBINACA i.p. alone", "result": "≤ 135", "unit": "min"},
      {"measurement": "Duration of significant decreases in heart rate", "setting": "[9]; 1 mg/kg AMB-FUBINACA alone", "result": "during most of the post-injection session"},
      {"measurement": "Effect on respiratory minute volume", "setting": "[9]; 1 mg/kg AMB-FUBINACA alone and with 10 mg/kg pFPP, part or all of the post-injection session", "result": "significantly decreased minute volume"},
      {"measurement": "Duration of significant hypothermia", "setting": "[9]; 1 mg/kg AMB-FUBINACA combined with 10 mg/kg pFPP", "result": "throughout the session"},
      {"measurement": "Duration of hypothermic effect", "setting": "[9]; 1 mg/kg AMB-FUBINACA i.p. alone", "result": "endured for the entire 240-min post-injection measurement period"},
      {"measurement": "Effect on temperature", "setting": "[9]; 0.03 and 0.1 mg/kg AMB-FUBINACA i.p.", "result": "no significant effect"},
      {"measurement": "Onset of significant hypothermic effect post-injection", "setting": "[9]; 0.3 and 1 mg/kg AMB-FUBINACA combined with 10 mg/kg pFPP, vs pFPP alone", "result": 75, "unit": "min"},
      {"measurement": "Effect on temperature vs vehicle/saline", "setting": "[9]; 0.3 and 1 mg/kg AMB-FUBINACA i.p. alone, one or more post-injection time points", "result": "produced hypothermia"},
      {"measurement": "Effect on heart rate", "setting": "[9]; 0.3 and 1 mg/kg AMB-FUBINACA i.p., alone or with 10 mg/kg pFPP", "result": "decreased heart rate"}
    ]}
  ]
}
